The source of these data is patent US20030166645A1, “Novel nitrofuran-containing heterocyclic compounds and uses thereof” (priority 2001, published 2003).

Structures are written as SMILES. ≈ marks a conversion by molar mass, not a printed value. Read-outs that look alike come from different tables or passages of the source. A value given as a limit tells only on which side of the number the result lay.

One assay relates to E faecalis. Nature of the assay: Microdilution antimicrobial susceptibility test (MIC). In kind it is cell-based. The following applies: broth microdilution, 18-24 h, MIC = 90% inhibition of growth; read-out: MIC E faecalis MIC2. A general note: Broth dilution looks for growth in wells or tubes with falling amounts of substance.
Another assay concerns Peptostreptococcus sp. In kind it is cell-based.
For another assay, the system named is M. catarrhalis. Kind of assay: Microdilution antimicrobial susceptibility test (MIC). In kind it is cell-based. The following applies: Moraxella catarrhalis; broth microdilution, 18-24 h, MIC = 90% inhibition of growth; read-out: MIC M. catarrhalis MIC2.
The next assay concerns S pneumoniae. The assay is described as above. The following applies: broth microdilution, 18-24 h, CO2-enriched atmosphere, MIC = 90% inhibition of growth; read-out: MIC S pneumoniae MIC6. In kind it is cell-based.
Assay [1] deals with Bacteroides thetaiotaomicron. In kind it is cell-based. The following applies: agar dilution, anaerobic, 48 h.
The subject of a further assay is S. aureus. Kind of assay: Systemic bacterial infection model, mice infected with S. aureus.
The subject of the next assay is Bacteroides vulgatus. Kind of assay: Antimicrobial agar dilution test of anaerobic bacteria (MIC). The following applies: 48 h. In kind it is cell-based. In general terms: In agar dilution, organisms are placed on agar that contains the substance at set levels.
The next assay concerns Clostridium perfringens. In kind it is cell-based. To be noted: disk 200 μg, anaerobic, 24-48 h.
In assay [2] the test system is Bacteroides fragilis. In kind it is cell-based.
The subject of assay [3] is Bacteroides fragilis. Kind of assay: Antimicrobial agar dilution test of anaerobic bacteria (MIC). In kind it is cell-based. The following applies: 48 h.
The next assay relates to Clostridium sp. In kind it is cell-based. To be noted: disk 200 μg, anaerobic, 24-48 h.
The next assay relates to E coli (ImpA). Nature of the assay: Microdilution antimicrobial susceptibility test (MIC). In kind it is cell-based. The following applies: broth microdilution, 18-24 h, MIC = 90% inhibition of growth; read-out: MIC E coli (ImpA) MIC9. Here is the method: Microdilution Antimicrobial Susceptibility Test Assay
Stock solutions of tested compounds were prepared in N,N-dimethylformamide (DMF) at a concentration of 5 mg/mL. Working solutions of the tested compounds were then prepared from the stock solutions, in Mueller-Hinton broth (MHB) with a starting concentration of 64 μg/mL.
Bacterial inocula were prepared from overnight culture (i.e., one fresh colony from agar plate in 5 ml MHB; H. influenzae was grown in MHB with the addition of yeast extract, haematin, and NAD), centrifuged 2×5 min/3000 rpm (for S. pneumoniae and H. influenzae, 2×10 min/3000 rpm), and dispensed in 5 ml of fresh MHB each time, such that the bacterial suspension is diluted to obtain 100 colony forming units (cfu) in a microplate well (100 μl total volume).
Microplate wells were filled with two-fold dilutions of test compound (50 Al), starting with 64 μg/ml. Wells were then filled with 50 μl of bacterial inoculum (final volume: 100 μl/well). The plates were incubated at 37° C. for 18-24 hours (S. pneumoniae was grown in a CO2-enriched atmosphere).

For another assay, the system named is E coli. The assay is described as above. In kind it is cell-based. The following applies: broth microdilution, 18-24 h, MIC = 90% inhibition of growth; read-out: MIC E coli MIC2.
Another assay relates to S aureus. Described as above. The following applies: broth microdilution, 18-24 h, MIC = 90% inhibition of growth; read-out: MIC S aureus MIC2. In kind it is cell-based.
In a further assay the test system is H influenzae. The description is as above. In kind it is cell-based. The following applies: broth microdilution, 18-24 h, MIC = 90% inhibition of growth; read-out: MIC H influenzae MIC4.
Another assay relates to E. coli. Nature of the assay: Systemic bacterial infection model, mice infected with E. coli.
The subject of a further assay is S cerevisiae. Nature of the assay: Microdilution antimicrobial susceptibility test (MIC). The following applies: broth microdilution, 18-24 h, MIC = 90% inhibition of growth; read-out: MIC S cerevisiae MIC7. In kind it is cell-based.
A further assay deals with P aeruginosa. The assay is described as above. To be noted: broth microdilution, 18-24 h, MIC = 90% inhibition of growth; read-out: MIC P aeruginosa MIC2. In kind it is cell-based.
[4] abbreviates: Study #2, 25 mg/kg IP QD × 3, 6 days observation.
[5] abbreviates: Study #2, 50 mg/kg IP QD × 3, 6 days observation.
Where [6] appears, read: Clostridium perfringens (fresh wound isolate).
Setting [7] is: Clostridium perfringens, diameter includes disk.
Where [8] appears, read: Study #3, 50 mg/kg IP QD × 3, 6 days observation.
[9] abbreviates: Study #3, 75 mg/kg IP QD × 3, 6 days observation.
The mark [10] stands for this setting: Study #3, 100 mg/kg IP QD × 3, 6 days observation.

As for `Cn1c(S)nnc1-c1ccc([N+](=O)[O-])o1` [Compound 122, 5-[2-(5-Nitro)furyl]-4-methyl-4H-1,2,4-triazole-3-thiol], the MIC is 2 mg/L (≈ 8.84 µM) in the assay with E faecalis; < 0.12 mg/L with M. catarrhalis; 4 mg/L (≈ 17.7 µM) in the assay with S pneumoniae; 0.25 mg/L (≈ 1.11 µM) in the assay with E coli (ImpA); 4 mg/L (≈ 17.7 µM) with E coli; 2 mg/L (≈ 8.84 µM) in the assay on S aureus. Further, the MIC with H influenzae stood at 8 mg/L (≈ 35.4 µM); with S cerevisiae, 32 mg/L (≈ 141 µM). Besides, the Inhibition zones is given as 15 mm with Peptostreptococcus sp (Peptostreptococcus sp (fresh abdominal aspirate), disk 200 μg, anaerobic, 24-48 h); 30 mm in the assay with Clostridium perfringens (setting [6]); 36 mm* with Clostridium perfringens (setting [7]); 41 mm in the assay with Bacteroides fragilis [2] (Bacteroides fragilis, disk 200 μg, anaerobic, 24-48 h); 20 mm with Clostridium sp. (Clostridium sp. (first listed strain)); 40 mm in the assay with Clostridium sp. (Clostridium sp. (second listed strain)). Moreover, the MIC Bacteroides thetaiotaomicron in assay [1] is < 0.125 mg/L. Moreover, the “Survival (%)” value in the assay with S. aureus (setting [4]) stood at 0%; with S. aureus (setting [5]), 30%; in the assay with S. aureus (Study #2, 75 mg/kg IP QD × 3, 6 days observation), 10%; in the assay on S. aureus (Study #2, 100 mg/kg IP QD × 3, 6 days observation) it was 0%; in the assay with E. coli (Study #3, 25 mg/kg IP QD × 3, 6 days observation), 0%; in the assay on E. coli (setting [8]) it was 60%. In addition, the “Survival (%)” value turned out to be 20% in the assay on E. coli (setting [9]) and 0% in the assay on E. coli (setting [10]). In addition, the MIC Bacteroides vulgatus with Bacteroides vulgatus is < 0.125 mg/L. Besides, the MIC Bacteroides fragilis against Bacteroides fragilis [3] (first B. fragilis column), in the assay on Bacteroides fragilis [3] (second B. fragilis column) and with Bacteroides fragilis [3] (third B. fragilis column) was < 0.125 mg/L in each case.
`O=C1CN(/N=C/c2ccc([N+](=O)[O-])o2)C(=O)N1` [Nitrofurantoin, reference compound]: the MIC in the assay with E faecalis is 4 mg/L (≈ 16.8 µM); with M. catarrhalis, 2 mg/L (≈ 8.4 µM); with S pneumoniae, 2 mg/L (≈ 8.4 µM); in the assay with P aeruginosa, > 64 mg/L; with E coli it was 8 mg/L (≈ 33.6 µM); in the assay with S aureus it was 16 mg/L (≈ 67.2 µM). Besides, the MIC is 4 mg/L (≈ 16.8 µM) with H influenzae and > 64 mg/L in the assay with S cerevisiae. Moreover, the Inhibition zones in the assay with Peptostreptococcus sp is listed as 12 mm**; in the assay on Clostridium perfringens (setting [6]), 21 mm; in the assay on Clostridium perfringens (setting [7]) it was >25 mm**; with Bacteroides fragilis [2] it was >25 mm**. The MIC Bacteroides thetaiotaomicron in assay [1] turned out to be 2 mg/L (≈ 8.4 µM). For the same compound, the “Survival (%)” value in the assay with S. aureus (setting [4]) stood at 50%; in the assay with S. aureus (setting [5]), 50%; with E. coli (setting [8]) it was 0%; with E. coli (setting [9]), 20%; in the assay on E. coli (setting [10]) it was 0%. The MIC Bacteroides vulgatus in the assay on Bacteroides vulgatus was < 0.125 mg/L. The MIC Bacteroides fragilis with Bacteroides fragilis [3] (first B. fragilis column), in the assay on Bacteroides fragilis [3] (second B. fragilis column) and against Bacteroides fragilis [3] (third B. fragilis column) was 2 mg/L (≈ 8.4 µM) in each case.
`O=C(N[C@H](CO)[C@H](O)c1ccc([N+](=O)[O-])cc1)C(Cl)Cl` [Chloramphenicol] showed an MIC Bacteroides thetaiotaomicron in assay [1] of 4 mg/L (≈ 12.4 µM). The MIC Bacteroides vulgatus against Bacteroides vulgatus was < 0.125 mg/L. The MIC Bacteroides fragilis against Bacteroides fragilis [3] (first B. fragilis column), in the assay with Bacteroides fragilis [3] (second B. fragilis column) and in the assay on Bacteroides fragilis [3] (third B. fragilis column) was 4 mg/L (≈ 12.4 µM) each time.
For `CC[C@H]1OC(=O)[C@H](C)[C@@H](O[C@H]2C[C@@](C)(OC)[C@@H](O)[C@H](C)O2)[C@H](C)[C@@H](O[C@@H]2O[C@H](C)C[C@H](N(C)C)[C@H]2O)[C@](C)(O)C[C@@H](C)CN(C)[C@H](C)[C@@H](O)[C@]1(C)O` [Azithromycin], the MIC Bacteroides thetaiotaomicron in [1] was 4 mg/L (≈ 5.34 µM). In the assay with Bacteroides vulgatus, this compound returned an MIC Bacteroides vulgatus of 1 mg/L (≈ 1.34 µM). Also, the MIC Bacteroides fragilis against Bacteroides fragilis [3] (first B. fragilis column), with Bacteroides fragilis [3] (second B. fragilis column) and against Bacteroides fragilis [3] (third B. fragilis column) was 4 mg/L (≈ 5.34 µM) throughout.
